From article PMC9562916, “Investigation of the Phenolic Component Bioavailability Using the In Vitro Digestion/Caco-2 Cell Model, as well as the Antioxidant Activity in Chinese Red Wine” (Foods, 2022)
Read-outs that look alike come from different tables or passages of the source. Marks after values point to notes of the source that are not given here.

What was measured:
[1] = PC content of red wine before and after in vitro simulated gastrointestinal digestion (HPLC); assay type: in vitro ADME; settings: after simulated gastrointestinal digestion
Protocol: The digestion procedure was carried out by adapting the method of Brodkorb et al. and Gómez et al.. […] One milliliter (50 units/mL) of porcine amylase was prepared in a 15 mM Na₃PO₄ buffer solution (pH adjusted to 6.8) containing 1.5 mM CaCl2, and it was added to the red wine solution. After 5 min, 4.5 mL of 0.12 M HCl was added to the mixture to adjust the pH to 2.4. One milliliter of porcine pepsin (0.02 mg/L) was dissolved in a 20 mM HCl solution. The mixture was then maintained at 37 °C for 120 min. The digestion mixture was then centrifuged at 8000× g for 15 min to obtain samples from the gastric digestion phase. […] The mixture was incubated at pH 6.5 at 37 °C for 3 h before being centrifuged. The extracts of the intestinal phase were the supernatants. The same operation was done three times, and each sample was stored in a refrigerator (−20 °C) immediately for further analysis.
The Pati method was adopted, with slight modifications, to measure the content of the PCs. The Agilent 1100 series HPLC instrument was used; it was equipped with a degasser, quaternary pump solvent delivery, a DAD system, and a single quadrupole mass detector coupled with an electrospray ionization LC–MS interface. Briefly, th samples were injected into a Zorbax SB C18 reversed-phase column (5 µm,150 × 2.1 mm, Agilent Technologies, Santa Clara, CA, USA) using an autosampler after filtering through 0.45 µm cellulose acetate syringe filters. The column temperature was kept at 30 °C, the injection volume was 10 µL, and the flow rate was 0.3 mL/min. The eluents were water and formic acid in a 99:1 (v/v) (A) ratio and 100% acetonitrile (B). […] The MS configuration was as follows: ESI, negative ion mode, nebulizer pressure of 30 psi, a dry gas flow rate of 10 mL/min, dry gas temperature of 350 °C, and a scan rate of 100~1200 m/z. PCs were determined according to their retention times, UV/VIS spectra, and high-resolution MS spectra, in addition to a comparison with the standards. […] Putative annotations were made using spectral features and literature information on the chromatographic properties and mass spectra records from the metabolome database. A standard curve was drawn using methanol solutions with different concentrations as the standards. The limits of detection and quantitation were calculated according to the signal-to-noise ratio (limit of detection: signal-to-noise ratio ≥ 3; limit of quantitation: signal-to-noise ratio ≥ 10). […] PCs All of the samples were determined in triplicate.

[2] = Caco-2 transepithelial transport assay of digested red wine; assay type: in vitro ADME, human; settings: human, Caco-2, apical to basolateral
Protocol: (§1) Caco-2 cells were inoculated following the method of Hubatsch et al. […] Briefly, a 5% v/v of CO2 incubator at 37 °C was used to house the cells. […] Caco-2 cells were sub-cultured when they reached 80-90% of the adherent growth by treating them with a 0.05% v/v of trypsin-EDTA solution. The culture between passages 35 and 40 was used for the following experiment. Transport experiments were performed according to the method of Wu et al. with slight modifications. First, 1.0 × 10^5 Caco-2 cells were inoculated onto 12 mm transparent cell culture plates (Transwell). Media were carefully injected into the apical (0.5 mL) and basolateral (1.5 mL) sides of the Transwell plates. The cell culture medium had to be replaced every other day until the cells formed a monolayer. The integrity and transport ability of the Caco-2 cell monolayer were evaluated by measuring the trans-epithelial electrical resistance (TEER) with a MilliCell voltammeter (Millicell ERS-2, Merck Millipore, Billerica, MA, USA). […] When the cell activity exceeded 0.9, a transport experiment was conducted. The apical side was injected with a digested red wine sample (0.5 mL) and was thoroughly mixed with […] Balanced Salt Solution (HBSS) buffer solution. […] The cells were then cultured in a 37 °C, 5% CO2 incubator. Then, 0.25 mL samples were separately taken from the basolateral side of the monolayer. An equal volume of HBSS buffer was then added every half hour from the beginning of the culture until the end of the culture at 6 h. The collected samples were subsequently filtered and placed in the sample bottle for further HPLC analysis. This experiment was repeated several times to collect enough samples for the next antioxidant test. […] The Agilent 1100 series HPLC instrument was used; it was equipped with a degasser, quaternary pump solvent delivery, a DAD system, and a single quadrupole mass detector coupled with an electrospray ionization LC-MS interface. […] The column temperature was kept at 30 °C, the injection volume was 10 μL, and the flow rate was 0.3 mL/min. The eluents were water and formic acid in a 99:1 (v/v) (A) ratio and 100% acetonitrile (B). The gradient elution procedure was as follows: (1) 3% B solvent at 0 min, (2) 3 to 16% B solvent at 10 min, (3) 16 to 20% B solvent at 30 min, and (4) 20% B solvent maintained until the procedure was completed. The MS configuration was as follows: ESI, negative ion mode, nebulizer pressure of 30 psi, a dry gas flow rate of 10 mL/min, dry gas temperature of 350 °C, and a scan rate of 100~1200 m/z. PCs were determined according to their retention times, UV/VIS spectra, and high-resolution MS spectra, in addition to a comparison with the standards. […] If a standard was unavailable, a structurally related compound was used. Putative annotations were made using spectral features and literature information on the chromatographic properties and mass spectra records from the metabolome database. A standard curve was drawn using methanol solutions with different concentrations as the standards. […] PCs All of the samples were determined in triplicate.

Caco-2 cell monolayer = assay: as above; assay type: in vitro ADME, human; settings: digested sample, basolateral side of Caco-2 monolayer
Protocol: as §1

PC Contents, Cabernet, After Digestion ([1]; Cabernet red wine): 38.42 ± 1.88 ^b mg/L
PC Contents, Helanshan, After Digestion ([1]; Helanshan red wine): 30.18 ± 0.94 ^b mg/L
PC Contents, Tianzhu, After Digestion ([1]; Tianzhu red wine): 40.83 ± 1.51 ^b mg/L
Papp at 6 h ([2]; digested Cabernet red wine, read-out: Apparent Permeability Coefficients, Cabernet): 17.4 ± 2.73 ×10⁻⁶ cm/s
Papp at 6 h ([2]; digested Helanshan red wine, read-out: Apparent Permeability Coefficients, Helanshan): 17.9 ± 2.88 ×10⁻⁶ cm/s
Papp at 6 h ([2]; digested Tianzhu red wine, read-out: Apparent Permeability Coefficients, Tianzhu): 18.3 ± 3.02 ×10⁻⁶ cm/s
PC Contents, Cabernet, Transmembrane (Caco-2 cell monolayer; Cabernet red wine): 10.70 ± 0.33 ^a mg/L
PC Contents, Helanshan, Transmembrane (Caco-2 cell monolayer; Helanshan red wine): 8.64 ± 0.36 ^a mg/L
PC Contents, Tianzhu, Transmembrane (Caco-2 cell monolayer; Tianzhu red wine): 8.13 ± 0.28 ^a mg/L
SMILES: CCOC(=O)c1cc(O)c(O)c(O)c1 [Ethyl gallate]
